Measurements published in PMC10342533, “Novel Tetrazole Derivatives Targeting Tubulin Endowed with Antiproliferative Activity against Glioblastoma Cells” (International Journal of Molecular Sciences, 2023).

Legend:
[1] = test system: microtubule network of MCF7 cells; assay: Immunofluorescence confocal microscopy of microtubule network, MCF7; type: cell-based, human; conditions: MCF7, 24 h, 100 nM, α-tubulin immunofluorescence
Method: To elucidate if the interaction of the compounds with tubulin inferred from the in vitro TPI experiments has consequences on cellular microtubules, we studied the effect of representative compounds on the microtubule network of HeLa, MCF7, and U87 MG cells 24 h after treatment via the use of immunofluorescence confocal microscopy through α-tubulin and nuclei labeling.
HeLa, MCF7, and U87 MG cells (8·10^4 cells/mL) were grown on 0.01% poly-L-lysine pre-coated square glass coverslips (22 mm^2), deposited on 6-well plates (1 coverslip/well), and incubated in complete DMEM medium (see above) at 37 °C and 5% CO2 atmosphere for 24 h. Then, the cells were incubated for 24 h in the presence or absence (negative controls) of selected compounds (10, 12, or 14) at 100 nM. After drug treatment incubation, medium was removed, and coverslips were washed three times with PBS, fixed with 4% formaldehyde in PBS for 10 min, permeabilized with 0.5% Triton X-100, (Sigma-Aldrich, St. Louis, MO, USA) in PBS for 90 s at 4 °C, blocked with 10% BSA in PBS for 30 min, and washed with PBS four times. The coverslips were incubated for 1 h with anti-α-tubulin mouse monoclonal antibody (Sigma-Aldrich, St. Louis, MO, USA), diluted 1:200 in PBS containing 3% BSA, washed four times with PBS, and then incubated in darkness with the fluorescent secondary antibody Alexa Fluor 488 goat anti-mouse IgG (Molecular Probes, Invitrogen, Eugenen, OR, USA) and diluted 1:400 in PBS containing 1% BSA for 1.5 h. The coverslips were washed four times with PBS, and a drop of ProLong™ Gold Antifade Mountant containing DAPI (ThermoFisher, Waltham, MA, USA) was added for cell nuclei staining. The samples were analyzed via confocal microscopy, which was performed by using a LEICA SP5 microscope DMI-6000V model coupled to a LEICA LAS AF software computer.

[2] = test system: MCF7 cells; assay: Apoptotic cell death quantification, Annexin V-FITC/PI, MCF7; type: cell-based, human; conditions: MCF7, 72 h, 100 nM; for Necrotic cells: PI+ AnV−
Method: (§1) To characterize the cell death mechanism induced by the representative compounds 10, 12, or 14 at 100 nM on HeLa, MCF7, and U87 MG cells, dual-channel flow cytometry studies were carried out for cells in the absence (negative control) or presence of compounds 72 h after treatment. Fluorescein isothiocyanate-labeled Annexin V (FITC-AnV) and propidium iodide (PI) were used for double staining. Regarding their response to AnV and PI, cells can be identified as viable (PI−, AnV−), early apoptotic (PI−, AnV+), late apoptotic or secondary necrotic (PI+, AnV+), or necrotic (PI+, AnV−). The translocation of the phosphatidylserine from the inner to the outer cell membrane causes the response of apoptotic cells to AnV, whereas only cells suffering some kind of membrane disintegration (late apoptotic or necrotic cells) allow PI permeation.
(§2) Following the manufacturer’s guidelines, an Annexin V-FITC/PI apoptosis detection kit (Immunostep, Salamanca, Spain) was used to quantify HeLa, MCF7, or U87 MG cells. Cells were seeded in 12-well plates (5·10^4 cells/mL, 1 mL/well) and incubated in complete DMEM medium (see above) at 37 °C and 5% CO2 atmosphere for 24 h. Then, the cells were treated with selected compounds (10, 12, or 14) at 100 nM, and untreated cells were used as negative controls. Then, 72 h after incubation, the cells were harvested, centrifugated, resuspended in the Annexin V binding buffer, and incubated in darkness with Annexin V-FITC/PI for 15 min at room temperature. The samples were analyzed by using a BD Accuri™ C6 Plus Flow Cytometer (BD Biosciences), and acquired data were analyzed via BD Accuri™ C6 Software (version 1.0.264.21).

[3] = test system: HeLa (cervix epithelioid carcinoma); assay: Cell growth inhibition, MTT assay, HeLa; type: cell-based; conditions: Homo sapiens
Method: The ability of the synthesized compounds to inhibit the cell proliferation of human cancer cell lines was assayed by measuring cell viability through the use of the MTT method 72 h after treatment. For this purpose, representative cell lines of the most frequent kinds of cancer were selected, including the following: HeLa (cervix epithelioid carcinoma), MCF7 (breast adenocarcinoma), U87 MG (glioblastoma), T98G (temozolomide resistant glioblastoma), HepG2 (hepatocellular carcinoma), HCT8 (colorectal carcinoma), and HT-29 (colon adenocarcinoma).
The cell lines were obtained from ATTC (Manassas, VA, USA). […] The cells were periodically tested for Mycoplasma infection by using a MycoAlert kit (Lonza, Norwest, Australia), and only Mycoplasma-free cells were used in the experiments.
Then, every compound was added (10 µL/well) to a final concentration of 10 µM. Untreated cells were used as negative controls. The antiproliferative activity of compounds was measured 72 h after drug exposure through the MTT assay. […] For this purpose, compounds were used at different concentrations, ranging from 10^−10 to 10^−2 M. Measurements were performed in triplicate, and each experiment was repeated three times. The IC50 values were determined using Origin software (version 9.6, OriginLab, Washington, DC, USA).

[4] = test system: HeLa cells; assay: Apoptotic cell death quantification, Annexin V-FITC/PI, HeLa; type: cell-based, human; conditions: 72 h, 100 nM
Method: as §1, §2

| IC50 ([3]; 72 h after drug exposure) | IC50 ([3]; mean ± SD, Table S1) | SMILES | effect on microtubule network [1] | early and late apoptotic populations [2] | Necrotic cells [2] | apoptosis (early and late apoptotic death) [4] |
| --- | --- | --- | --- | --- | --- | --- |
| 39 nM | 39.3 ± 0.2 nM | CSc1cc(-c2nnnn2-c2ccc3c(ccn3C)c2)cc(Cl)n1 [Compound 10, 5-(5-(2-chloro-6-(methylsulfanyl)pyridin-4-yl)-1H-tetrazol-1-yl)-1-methyl-1H-indole] | severe microtubule network disruption | 22% | 2.3% | ~73% |
| 36 nM | 36.4 ± 0.4 nM | Cn1cc(C=O)c2cc(-n3nnnc3-c3cc(Cl)nc(Cl)c3)ccc21 [Compound 12, 5-(5-(2,6-dichloropyridin-4-yl)-1H-tetrazol-1-yl)-1-methyl-1H-indole-3-carbaldehyde] | severe microtubule network disruption | 8% | 7% | ~73% |
| 24 nM | 24.2 ± 0.1 nM | CSc1cc(-c2nnnn2-c2ccc3c(c2)c(C=O)cn3C)cc(Cl)n1 [Compound 14, 5-(5-(2-chloro-6-(methylsulfanyl)pyridin-4-yl)-1H-tetrazol-1-yl)-1-methyl-1H-indole-3-carbaldehyde] | severe microtubule network disruption | 29% | 2.6% | 80% |
